18 molecules from ChEMBL document CHEMBL1137940, “Discovery of thiophene-2-carboxylic acids as potent inhibitors of HCV NS5B polymerase and HCV subgenomic RNA replication. Part 2: tertiary amides” (Bioorg Med Chem Lett, 2004) can be followed below.

One assay concerns the target Genome polyprotein (Hepatitis C virus genotype 1a (isolate 1) (HCV), UniProt P26664). Briefly: In vitro inhibition of Hepatitis C polymerase.
Assay [1] deals with Huh-7. Briefly: Tested for inhibition of replication of HCV RNA subgenomic replicons in Huh-7 cells by replicon assay. The assay is classed as functional, cell-based, Homo sapiens.
In assay [2] the test system is Huh-7. The assay is described as follows: Tested for cytotoxic effect to Huh-7 cells containing HCV RNA subgenomic replicons. Type of assay: functional. Conditions: Homo sapiens.
Assay [3] deals with Huh-7. Briefly: Tested for inhibition of replication of HCV RNA subgenomic replicons in Huh-7 cells by real time PCR. The note with it: Homo sapiens. The assay is classed as functional, cell-based.

Chain of Genome polyprotein (P26664 2421-3011 limits assumed): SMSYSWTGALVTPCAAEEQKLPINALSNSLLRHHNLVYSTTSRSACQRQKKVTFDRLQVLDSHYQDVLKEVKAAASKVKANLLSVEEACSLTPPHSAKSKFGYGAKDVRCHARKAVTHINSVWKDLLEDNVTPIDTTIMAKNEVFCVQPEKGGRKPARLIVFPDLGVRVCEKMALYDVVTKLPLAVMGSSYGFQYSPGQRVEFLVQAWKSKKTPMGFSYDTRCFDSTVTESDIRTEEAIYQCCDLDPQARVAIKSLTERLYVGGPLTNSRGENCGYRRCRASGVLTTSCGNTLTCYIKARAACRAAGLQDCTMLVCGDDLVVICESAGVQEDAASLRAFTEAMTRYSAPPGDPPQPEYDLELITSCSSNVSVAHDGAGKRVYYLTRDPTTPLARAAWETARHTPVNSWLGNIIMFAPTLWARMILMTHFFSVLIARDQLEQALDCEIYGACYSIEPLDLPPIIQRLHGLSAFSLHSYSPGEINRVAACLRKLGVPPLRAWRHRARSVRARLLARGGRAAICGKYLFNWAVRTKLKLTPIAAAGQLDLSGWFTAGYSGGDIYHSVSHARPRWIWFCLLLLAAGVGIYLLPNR

As to `Cc1ccc(C(=O)N(c2cc(-c3ccccc3)sc2C(=O)O)C(C)C)cc1`, the 50% inhibitory concentration (IC50) turned out to be 3 µM at Genome polyprotein and 5 µM with Huh-7 [1] (Homo sapiens, Huh-7). The molecule also yielded a CC50 with Huh-7 [2] above 200 µM.

Turning to `Cc1cccc(C(=O)N(C)c2cc(-c3ccccc3)sc2C(=O)O)c1`, the IC50 at Genome polyprotein was above 50 µM; with Huh-7 [1] (Homo sapiens, Huh-7), above 100 µM. In the assay with Huh-7 [2], this molecule had a CC50 above 200 µM.

Turning to `CC(C)N(C(=O)C1CCCCC1)c1cc(-c2ccccc2)sc1C(=O)O`, the IC50 at Genome polyprotein was determined as 9 µM; with Huh-7 [1] (Homo sapiens, Huh-7) it was 15 µM. Further, half-maximal cytotoxicity with Huh-7 [2] (CC50) was put at 69 µM.

On to `CC1CCC(C(=O)N(c2cc(-c3ccccc3)sc2C(=O)O)C(C)C)CC1` (stereo in doubt; 17), for which the half-maximal inhibitory concentration (IC50) on Genome polyprotein was 24 µM; with Huh-7 [1] (huh-7) it was above 50 µM.

For `CCN(C(=O)c1ccc(C)cc1)c1cc(-c2ccccc2)sc1C(=O)O`, the IC50 against Genome polyprotein amounted to 2 µM; in the assay with Huh-7 [1] (Homo sapiens, Huh-7), 12 µM. In the assay with Huh-7 [2], this molecule registered a CC50 of 100 µM.

`CN(C(=O)c1ccc(Cl)cc1)c1cc(-c2ccccc2)sc1C(=O)O`: the IC50 on Genome polyprotein came to 1.2 µM; in the assay on Huh-7 [1] (Homo sapiens, Huh-7), 19 µM. This molecule also showed a CC50 with Huh-7 [2] of 88 µM.

At Genome polyprotein, `Cc1ccc(C(=O)N(C)c2cc(-c3ccccc3)sc2C(=O)O)cc1C` showed a half-inhibitory concentration (IC50) above 50 µM.

Molecule `Cc1ccc(C(=O)Nc2cc(-c3ccccc3)sc2C(=O)O)cc1` returned a 50% inhibitory concentration (IC50) in the assay on Huh-7 [1] (Homo sapiens, Huh-7) above 100 µM. Also, in the assay on Huh-7 [2], the CC50 was 118 µM.

As to `CN(C(=O)c1ccccc1)c1cc(-c2ccccc2)sc1C(=O)O`, the IC50 at Genome polyprotein is above 32 µM.

In the case of `CC(C)N(C(=O)c1ccc(Cl)cc1Cl)c1cc(-c2ccccc2)sc1C(=O)O`, the half-inhibitory concentration (IC50) at Genome polyprotein amounted to 1.2 µM; with Huh-7 [1] (Homo sapiens, Huh-7) it was 8.9 µM. Besides, the CC50 in the assay on Huh-7 [2] amounted to 62 µM.

For the molecule `CC1CCC(C(=O)N(c2cc(-c3ccccc3)sc2C(=O)O)C(C)C)CC1` (stereo in doubt; 16), the IC50 against Genome polyprotein was 1.5 µM; in the assay with Huh-7 [1] (huh-7), 0.6 µM; with Huh-7 [3], 0.3 µM. The molecule further displayed a cytotoxic concentration (CC50) with Huh-7 [2] of 123 µM.

With `CN(C(=O)c1ccc(C(F)(F)F)cc1)c1cc(-c2ccccc2)sc1C(=O)O`, the IC50 at Genome polyprotein was 34 µM; in the assay with Huh-7 [1] (Homo sapiens, Huh-7) it was above 50 µM.

The molecule `Cc1ccccc1C(=O)N(C)c1cc(-c2ccccc2)sc1C(=O)O` had an IC50 against Genome polyprotein of 21 µM.

`CCc1ccc(C(=O)N(C)c2cc(-c3ccccc3)sc2C(=O)O)cc1`: the IC50 was above 50 µM against Genome polyprotein and above 100 µM in the assay on Huh-7 [1] (Homo sapiens, Huh-7).

Take `Cc1ccc(S(=O)(=O)Nc2cc(-c3ccccc3)sc2C(=O)O)c(C)c1`: the IC50 with Huh-7 [1] (Homo sapiens, Huh-7) came out at 5 µM. In the assay on Huh-7 [2], this molecule displayed a CC50 of 57 µM.

On to `Cc1ccc(C(=O)N(C)c2cc(-c3ccccc3)sc2C(=O)O)c(C)c1`, for which the 50% inhibitory concentration (IC50) at Genome polyprotein worked out at 1.4 µM; with Huh-7 [1] (Homo sapiens, Huh-7) it was 16 µM. In addition, the midpoint of cytotoxicity in the assay with Huh-7 [2], the CC50, lay at 160 µM.

On to `Cc1ccc(S(=O)(=O)N(C)c2cc(-c3ccccc3)sc2C(=O)O)c(C)c1`, for which the IC50 against Genome polyprotein came out at 5 µM; with Huh-7 [1] (Homo sapiens, Huh-7) it was 35 µM. The molecule also gave a CC50 with Huh-7 [2] of 115 µM.

As to `Cc1ccc(C(=O)N(C)c2cc(-c3ccccc3)sc2C(=O)O)cc1`, the half-maximal inhibitory concentration (IC50) was determined as 2 µM on Genome polyprotein and 22 µM in the assay with Huh-7 [1] (Homo sapiens, Huh-7). The molecule further yielded a CC50 with Huh-7 [2] above 200 µM.
